Active and inactive are the calls of the source. No cut-off for these calls is given here.
What was measured:
[1] = biological target: T1, P2X purinoceptor 7 (Homo sapiens, UniProt Q99572); assay: Antagonist activity at human recombinant P2X7 receptor; format: functional
T1 sequence (Q99572 whole entry): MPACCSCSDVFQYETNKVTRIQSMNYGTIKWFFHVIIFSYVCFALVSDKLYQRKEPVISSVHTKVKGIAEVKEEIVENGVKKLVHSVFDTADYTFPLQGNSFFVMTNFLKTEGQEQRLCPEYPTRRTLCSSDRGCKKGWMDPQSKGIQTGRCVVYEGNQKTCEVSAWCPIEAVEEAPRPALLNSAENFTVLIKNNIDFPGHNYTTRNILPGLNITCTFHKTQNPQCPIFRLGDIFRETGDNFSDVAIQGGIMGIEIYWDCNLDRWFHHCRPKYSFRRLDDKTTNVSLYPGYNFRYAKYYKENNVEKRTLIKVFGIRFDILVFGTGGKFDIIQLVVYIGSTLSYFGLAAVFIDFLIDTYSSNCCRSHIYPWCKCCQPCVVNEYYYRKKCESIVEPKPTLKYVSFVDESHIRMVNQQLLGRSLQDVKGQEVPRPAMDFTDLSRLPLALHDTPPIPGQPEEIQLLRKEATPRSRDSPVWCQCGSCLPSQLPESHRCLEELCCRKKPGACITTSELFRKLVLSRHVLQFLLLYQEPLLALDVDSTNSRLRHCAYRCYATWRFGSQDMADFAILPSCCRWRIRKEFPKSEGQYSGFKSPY

[2] = system: THP-1; assay: Inhibition of IL1-beta release from THP1 cells; format: functional, cell-based; conditions: Homo sapiens
[3] = biological target: T2, P2X purinoceptor 7 (Rattus norvegicus, UniProt Q64663); assay: Antagonist activity at rat recombinant P2X7 receptor; format: functional
T2 sequence (Q64663 whole entry): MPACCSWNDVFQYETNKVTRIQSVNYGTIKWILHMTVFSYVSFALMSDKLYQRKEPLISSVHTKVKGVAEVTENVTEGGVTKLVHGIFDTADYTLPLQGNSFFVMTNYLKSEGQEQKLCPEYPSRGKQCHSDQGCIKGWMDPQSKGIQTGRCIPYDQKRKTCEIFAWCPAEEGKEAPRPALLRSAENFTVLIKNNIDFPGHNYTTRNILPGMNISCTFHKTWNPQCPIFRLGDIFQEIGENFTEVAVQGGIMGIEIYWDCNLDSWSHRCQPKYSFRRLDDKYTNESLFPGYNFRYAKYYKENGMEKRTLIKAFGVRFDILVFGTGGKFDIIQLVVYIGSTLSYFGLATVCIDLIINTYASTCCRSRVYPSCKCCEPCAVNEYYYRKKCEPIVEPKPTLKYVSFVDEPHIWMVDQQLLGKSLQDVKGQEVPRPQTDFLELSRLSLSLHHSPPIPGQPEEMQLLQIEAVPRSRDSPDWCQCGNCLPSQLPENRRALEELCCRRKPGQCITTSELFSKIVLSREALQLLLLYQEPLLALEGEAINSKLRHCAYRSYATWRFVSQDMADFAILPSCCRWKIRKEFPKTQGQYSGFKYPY

[4] = Volume of distribution at terminal phase in rat at 5 umol/kg, iv; format: ADME, organism-based; conditions: in vivo
[5] = Oral bioavailability in rat at 5 umol/kg; format: ADME, organism-based; conditions: in vivo
[6] = biological target: T3, P2X purinoceptor 1 (Homo sapiens) (UniProt P51575); assay: Activity at human P2X1 receptor at 10 uM
T3 sequence (whole entry): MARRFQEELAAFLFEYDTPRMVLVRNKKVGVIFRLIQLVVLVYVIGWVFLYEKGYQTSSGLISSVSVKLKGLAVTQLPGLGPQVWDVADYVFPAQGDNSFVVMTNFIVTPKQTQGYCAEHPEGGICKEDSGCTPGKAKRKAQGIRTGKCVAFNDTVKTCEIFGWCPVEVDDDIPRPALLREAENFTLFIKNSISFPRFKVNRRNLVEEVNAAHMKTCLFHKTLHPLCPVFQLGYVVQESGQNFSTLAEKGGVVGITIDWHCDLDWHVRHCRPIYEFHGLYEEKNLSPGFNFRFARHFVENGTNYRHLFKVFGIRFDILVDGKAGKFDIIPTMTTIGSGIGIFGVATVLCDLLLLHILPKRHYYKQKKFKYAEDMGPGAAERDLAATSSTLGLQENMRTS

[7] = Bioavailability in ip dosed rat Chung model of neuropathic pain; format: ADME, organism-based; conditions: in vivo
[8] = biological target: Translocator protein (Homo sapiens) (UniProt P30536); assay: Activity at peripheral benzodiazepine receptor at 10 uM
[9] = biological target: T4, P2X purinoceptor 4 (Homo sapiens) (UniProt Q99571); assay: Activity at human P2X4 receptor at 10 uM
T4 sequence (whole entry): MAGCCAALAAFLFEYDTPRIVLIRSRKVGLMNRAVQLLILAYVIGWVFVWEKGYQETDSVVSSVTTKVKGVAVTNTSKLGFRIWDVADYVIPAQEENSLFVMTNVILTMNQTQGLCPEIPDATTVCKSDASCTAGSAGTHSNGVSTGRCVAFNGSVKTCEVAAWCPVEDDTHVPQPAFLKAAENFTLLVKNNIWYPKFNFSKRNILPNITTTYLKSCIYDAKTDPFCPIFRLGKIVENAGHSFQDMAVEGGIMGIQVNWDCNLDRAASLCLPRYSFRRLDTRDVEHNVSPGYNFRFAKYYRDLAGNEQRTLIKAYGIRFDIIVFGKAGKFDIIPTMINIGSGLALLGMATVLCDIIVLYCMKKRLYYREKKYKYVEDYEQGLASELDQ

[10] = Clearance in rat at 5 umol/kg, iv; format: ADME, organism-based; conditions: in vivo
[11] = species: Homo sapiens; assay: Activity at human P2X2/3 receptor at 10 uM
[12] = biological target: T5, P2X purinoceptor 2 (Homo sapiens) (UniProt Q9UBL9); assay: Antagonist activity at human P2X2 receptor at 10 uM; format: functional
T5 sequence (whole entry): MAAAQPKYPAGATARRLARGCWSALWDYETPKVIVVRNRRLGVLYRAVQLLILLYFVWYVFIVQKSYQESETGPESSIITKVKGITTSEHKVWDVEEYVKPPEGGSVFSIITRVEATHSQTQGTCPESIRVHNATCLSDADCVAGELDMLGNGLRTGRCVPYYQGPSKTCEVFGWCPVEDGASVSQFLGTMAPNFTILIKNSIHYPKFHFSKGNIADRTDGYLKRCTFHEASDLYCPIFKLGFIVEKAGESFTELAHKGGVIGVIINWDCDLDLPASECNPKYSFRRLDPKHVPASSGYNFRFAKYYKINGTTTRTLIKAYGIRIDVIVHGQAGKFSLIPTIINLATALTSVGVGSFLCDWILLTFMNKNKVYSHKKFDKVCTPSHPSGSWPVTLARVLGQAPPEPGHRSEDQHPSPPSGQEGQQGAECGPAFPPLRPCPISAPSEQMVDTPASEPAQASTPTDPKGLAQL

[13] = species: Rattus norvegicus; assay: Antinociceptive activity in rat Chung model of neuropathic pain assessed as reversal of allodynia after 30 mins; format: functional
[14] = Cmax in rat at 5 umol/kg, ip; format: ADME, organism-based; parameters: dose 5 umol/kg, route intraperitoneal; conditions: in vivo
[15] = biological target: P2Y purinoceptor 1 (Homo sapiens) (UniProt P47900); assay: Activity at human P2Y1 receptor at 10 uM
[16] = Tmax in rat at 5 umol/kg, ip; format: ADME, organism-based; conditions: in vivo
[17] = Half life in ip dosed rat Chung model of neuropathic pain; format: ADME, organism-based; conditions: in vivo
[18] = biological target: P2Y purinoceptor 2 (Homo sapiens) (UniProt P41231); assay: Activity at human P2Y2 receptor at 10 uM
Sequence of P2Y purinoceptor 2 (Homo sapiens) (P41231 whole entry): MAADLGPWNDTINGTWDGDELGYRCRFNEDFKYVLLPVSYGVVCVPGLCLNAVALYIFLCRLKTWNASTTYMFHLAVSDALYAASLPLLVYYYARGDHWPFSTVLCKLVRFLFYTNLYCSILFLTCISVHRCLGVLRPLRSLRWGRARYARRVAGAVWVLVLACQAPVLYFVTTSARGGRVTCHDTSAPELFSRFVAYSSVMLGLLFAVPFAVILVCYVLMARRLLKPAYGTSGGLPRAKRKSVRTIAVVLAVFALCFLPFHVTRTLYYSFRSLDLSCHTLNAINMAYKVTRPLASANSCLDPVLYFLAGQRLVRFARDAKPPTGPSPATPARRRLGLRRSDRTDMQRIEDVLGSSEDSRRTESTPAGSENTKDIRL

Sequence of Translocator protein (Homo sapiens) (P30536 whole entry): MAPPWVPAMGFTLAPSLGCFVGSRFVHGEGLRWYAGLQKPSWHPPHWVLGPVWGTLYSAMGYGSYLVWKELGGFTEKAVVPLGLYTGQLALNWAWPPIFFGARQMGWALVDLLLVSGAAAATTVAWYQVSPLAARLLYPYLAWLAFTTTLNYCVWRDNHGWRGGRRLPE
Sequence of P2Y purinoceptor 1 (Homo sapiens) (P47900 whole entry): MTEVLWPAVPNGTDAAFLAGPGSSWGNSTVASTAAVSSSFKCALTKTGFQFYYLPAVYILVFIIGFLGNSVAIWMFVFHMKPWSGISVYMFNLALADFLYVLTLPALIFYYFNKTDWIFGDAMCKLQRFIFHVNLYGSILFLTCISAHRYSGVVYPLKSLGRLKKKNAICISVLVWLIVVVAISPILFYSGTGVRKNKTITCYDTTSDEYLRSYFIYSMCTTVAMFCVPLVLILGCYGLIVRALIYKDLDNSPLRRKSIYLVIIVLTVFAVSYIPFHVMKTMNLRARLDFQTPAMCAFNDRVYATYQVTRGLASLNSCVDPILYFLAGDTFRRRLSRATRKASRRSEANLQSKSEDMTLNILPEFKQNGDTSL

IC50 [1]	Compound	other results
912 nM	Fc1ccc(C(F)(F)F)cc1Cn1cnnc1-c1cccc(Cl)c1Cl	–
145 nM	CS(=O)(=O)c1ccccc1Cn1cnnc1-c1cccc(C(F)(F)F)c1Cl	–
132 nM	FC(F)(F)c1ccccc1Cn1cnnc1-c1cccc(Cl)c1Cl	–
77.6 nM	Cc1ccccc1Cn1cnnc1-c1cccc(Cl)c1Cl	Vd [4]: 1.9 L/kg; IC50 [2]: 372 nM; bioavailability [5]: 15%; Activity [6]: inactive; bioavailability [7]: 62%; Activity [8]: 86%; Activity [9]: inactive; clearance [10]: 51.7 mL/min/kg; Activity [11]: inactive; Activity [12]: inactive; Efficacy [13]: 68%; ED50 ([13]; Rattus norvegicus, 0.5 h): 125 µmol/kg; Cmax [14]: 210 ng/mL; Activity [15]: inactive; Tmax [16]: 19.8 min; half-life [17]: 102 min; Activity [18]: inactive; IC50 [3]: 209 nM
1290 nM	FC(F)(F)c1cccc(Cn2cnnc2-c2cccc(Cl)c2Cl)c1	–
26.9 nM	CSc1ccccc1Cn1cnnc1-c1cccc(C(F)(F)F)c1Cl	–
117 nM	FC(F)c1ccccc1Cn1cnnc1-c1cccc(Cl)c1Cl	–
191 nM	COc1ccccc1Cn1cnnc1-c1cccc(Cl)c1Cl	–
49 nM	CSc1ccccc1Cn1cnnc1-c1cccc(Cl)c1Cl	–
49 nM	Fc1ccc(C(F)(F)F)c(Cn2cnnc2-c2cccc(Cl)c2Cl)c1	–

Second part, the molecule before the results:

Compound	IC50 [1]	other results
Clc1cccc(Cn2cnnc2-c2cccc(Cl)c2Cl)c1Cl	191 nM	–
Clc1cccc(-n2ncnc2Cc2ccccc2)c1Cl	209 nM	–
FC(F)(F)c1ccc(Cn2cnnc2-c2cccc(Cl)c2Cl)cc1	8910 nM	–
Clc1cccc(-c2nncn2Cc2ccccc2)c1Cl	525 nM	–
Clc1cccc(-c2ncnn2Cc2ccccc2)c1Cl	302 nM	–
COc1cccc(Cn2cnnc2-c2cccc(Cl)c2Cl)c1	214 nM	–
Clc1cccc(-n2nncc2Cc2ccccc2)c1Cl	427 nM	–
Clc1cccc(-c2nncn2[C@H]2CCc3ccccc32)c1Cl	50.1 nM	–
Clc1cccc(-c2nncn2[C@@H]2CCc3ccccc32)c1Cl	19.1 nM	IC50 [2]: 75.9 nM; IC50 [3]: 77.6 nM
Clc1cccc(-c2ccnn2Cc2ccccc2)c1Cl	6030 nM	–
O=C(NCC12CC3CC(CC(C3)C1)C2)c1cccc(Cl)c1Cl	64.6 nM	IC50 [3]: 813 nM
CC(C)(c1ccccc1)n1cnnc1-c1cccc(Cl)c1Cl	13200 nM	–
Clc1ccc(Cn2cnnc2-c2cccc(Cl)c2Cl)c(Cl)c1	331 nM	–
Cc1ccc(F)cc1Cn1cnnc1-c1cccc(Cl)c1Cl	47.9 nM	IC50 [2]: 240 nM; IC50 [3]: 550 nM
Clc1cccc(-c2nnnn2Cc2ccccc2)c1Cl	–	IC50 [2]: 2510 nM; IC50 [3]: 75.9 nM
CC(c1ccccc1)n1cnnc1-c1cccc(Cl)c1Cl (stereo not given)	1050 nM	–
Clc1ccc(Cl)c(Cn2cnnc2-c2cccc(Cl)c2Cl)c1	138 nM	–
Clc1cccc(-c2cncn2Cc2ccccc2)c1Cl	1820 nM	–
Clc1cccc(-c2nncn2Cc2cccc3ccccc23)c1Cl	58.9 nM	–
COc1cccc(Cn2cnnc2-c2cccc(Cl)c2Cl)c1OC	132 nM	–
Clc1cccc(-c2cnnn2Cc2ccccc2)c1Cl	603 nM	–

Source: ChEMBL document CHEMBL1139969, “Novel and potent 3-(2,3-dichlorophenyl)-4-(benzyl)-4H-1,2,4-triazole P2X7 antagonists” (Bioorg Med Chem Lett, 2007)
